Test results: BindingDB's records for PubMed 9454827 (Sibia Neurosciences, 1998)

Legend:
[1] = molecular target: Neuronal acetylcholine receptor subunit alpha-2 (Homo sapiens, UniProt Q15822)
[2] = molecular target: Neuronal acetylcholine receptor subunit alpha-4 (Homo sapiens, UniProt P43681)
[3] = molecular target: Neuronal acetylcholine receptor subunit alpha-3 (Homo sapiens, UniProt P32297)
Sequence of Neuronal acetylcholine receptor subunit alpha-3 (P32297 whole entry): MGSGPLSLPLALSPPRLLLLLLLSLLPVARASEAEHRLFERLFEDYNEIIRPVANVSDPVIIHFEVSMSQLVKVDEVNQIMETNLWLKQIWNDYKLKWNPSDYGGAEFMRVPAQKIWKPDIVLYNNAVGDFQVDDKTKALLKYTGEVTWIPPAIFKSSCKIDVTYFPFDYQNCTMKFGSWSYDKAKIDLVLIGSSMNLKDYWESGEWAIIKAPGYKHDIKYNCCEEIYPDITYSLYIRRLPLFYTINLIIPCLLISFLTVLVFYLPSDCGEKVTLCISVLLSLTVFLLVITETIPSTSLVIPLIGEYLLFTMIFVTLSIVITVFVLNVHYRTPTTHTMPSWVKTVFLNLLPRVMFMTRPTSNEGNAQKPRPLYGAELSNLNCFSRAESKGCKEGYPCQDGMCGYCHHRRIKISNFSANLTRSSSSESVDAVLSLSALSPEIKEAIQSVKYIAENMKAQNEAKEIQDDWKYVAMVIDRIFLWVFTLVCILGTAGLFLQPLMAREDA

Sequence of Neuronal acetylcholine receptor subunit alpha-2 (Q15822 whole entry): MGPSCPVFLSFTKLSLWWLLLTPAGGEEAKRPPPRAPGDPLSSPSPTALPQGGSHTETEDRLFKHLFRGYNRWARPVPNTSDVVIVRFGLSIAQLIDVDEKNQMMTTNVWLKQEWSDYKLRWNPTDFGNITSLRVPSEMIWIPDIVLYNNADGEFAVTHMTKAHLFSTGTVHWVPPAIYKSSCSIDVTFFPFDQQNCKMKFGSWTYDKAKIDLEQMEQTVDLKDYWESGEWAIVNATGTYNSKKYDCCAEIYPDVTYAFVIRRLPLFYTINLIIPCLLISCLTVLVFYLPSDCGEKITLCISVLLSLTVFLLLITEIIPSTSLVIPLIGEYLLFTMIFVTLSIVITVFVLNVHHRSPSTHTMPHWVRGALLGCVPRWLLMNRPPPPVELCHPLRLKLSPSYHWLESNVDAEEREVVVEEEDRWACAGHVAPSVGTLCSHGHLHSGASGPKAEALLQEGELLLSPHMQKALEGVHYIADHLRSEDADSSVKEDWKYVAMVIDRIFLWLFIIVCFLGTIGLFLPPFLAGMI
Sequence of Neuronal acetylcholine receptor subunit alpha-4 (P43681 whole entry): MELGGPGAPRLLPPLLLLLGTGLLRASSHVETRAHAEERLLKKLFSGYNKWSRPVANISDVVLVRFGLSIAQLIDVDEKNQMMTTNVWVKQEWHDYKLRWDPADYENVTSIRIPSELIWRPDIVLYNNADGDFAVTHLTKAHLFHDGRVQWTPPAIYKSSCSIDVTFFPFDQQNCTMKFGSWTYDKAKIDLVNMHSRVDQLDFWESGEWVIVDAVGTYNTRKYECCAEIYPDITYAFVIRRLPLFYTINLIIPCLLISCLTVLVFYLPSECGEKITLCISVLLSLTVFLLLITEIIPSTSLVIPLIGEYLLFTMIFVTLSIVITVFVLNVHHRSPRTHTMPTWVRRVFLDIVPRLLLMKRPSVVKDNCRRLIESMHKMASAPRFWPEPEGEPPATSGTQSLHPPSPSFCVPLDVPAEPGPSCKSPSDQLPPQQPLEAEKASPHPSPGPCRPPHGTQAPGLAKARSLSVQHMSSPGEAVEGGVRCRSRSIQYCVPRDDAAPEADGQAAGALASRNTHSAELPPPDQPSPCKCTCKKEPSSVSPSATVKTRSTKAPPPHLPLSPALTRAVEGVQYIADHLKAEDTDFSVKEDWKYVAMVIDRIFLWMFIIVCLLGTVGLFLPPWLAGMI

Structure (SMILES) | Ki [1] | Ki [2] | Ki [3]
CN1CCC[C@H]1c1cccnc1 [(R,S)-nicotine] | 9.9 µM | – | –
CNC1(C)C2CCC(C2)C1(C)C (stereo not given) [Methyl-(2,3,3-trimethyl-bicyclo[2.2.1]hept-2-yl)-amine(Mecamylamine)] | 3.06 µM | 0.56 µM | –
O=c1cccc2n1C[C@H]1CNC[C@H]2C1 [(1S,9R)-7,11-diazatricyclo[7.3.1.0~2,7~]trideca-2,4-dien-6-one] | – | 0.515 µM | > 10 µM
CO[C@@H]1CC=C2CCN3CCC4=C(CC(=O)OC4)[C@@]23C1 | 5.09 µM | – | –
C[N+](C)(C)CCOC(=O)CCCCCCC(=O)OCC[N+](C)(C)C [NSC_123990] | 8.75 µM | 1.12 µM | > 10 µM
C[N+]1(C)CCN(c2ccccc2)CC1 [DMPP] | > 10 µM | > 10 µM | > 10 µM
COc1cc2c3cc1Oc1cc(ccc1O)C[C@H]1c4c(cc(OC)c(O)c4Oc4ccc(cc4)C[C@@H]3N(C)CC2)CC[N+]1(C)C [CAS_57-94-3] | 2.26 µM | 0.86 µM | 0.73 µM
